What was measured:
Experiment in all cases: radiometric kinase profiling (33 PanQinase)
Assay type in all cases: biochemical
AURKB = target: T1, AURKB (Homo sapiens, UniProt Q96GD4); settings: read-out: Inhibitory effect (%) AURKB
T1 construct: purchased Proqinase, Germany
In short: (§1)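 Enzyme/substrate mixes were incubated with [γ-33P]-ATP and compound (added as a 0.1 μM solution in 10% DMSO) at 30 °C for 60 min, then stopped with H3PO4 and washed with NaCl. 33P incorporation was scintillation-counted, and residual activity (%) was normalized to untreated control and background.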

AXL = target: T2, AXL (Homo sapiens, UniProt P30530); settings: read-out: Inhibitory effect (%) AXL
T2 construct: purchased Proqinase, Germany
T2 sequence (P30530 26-894): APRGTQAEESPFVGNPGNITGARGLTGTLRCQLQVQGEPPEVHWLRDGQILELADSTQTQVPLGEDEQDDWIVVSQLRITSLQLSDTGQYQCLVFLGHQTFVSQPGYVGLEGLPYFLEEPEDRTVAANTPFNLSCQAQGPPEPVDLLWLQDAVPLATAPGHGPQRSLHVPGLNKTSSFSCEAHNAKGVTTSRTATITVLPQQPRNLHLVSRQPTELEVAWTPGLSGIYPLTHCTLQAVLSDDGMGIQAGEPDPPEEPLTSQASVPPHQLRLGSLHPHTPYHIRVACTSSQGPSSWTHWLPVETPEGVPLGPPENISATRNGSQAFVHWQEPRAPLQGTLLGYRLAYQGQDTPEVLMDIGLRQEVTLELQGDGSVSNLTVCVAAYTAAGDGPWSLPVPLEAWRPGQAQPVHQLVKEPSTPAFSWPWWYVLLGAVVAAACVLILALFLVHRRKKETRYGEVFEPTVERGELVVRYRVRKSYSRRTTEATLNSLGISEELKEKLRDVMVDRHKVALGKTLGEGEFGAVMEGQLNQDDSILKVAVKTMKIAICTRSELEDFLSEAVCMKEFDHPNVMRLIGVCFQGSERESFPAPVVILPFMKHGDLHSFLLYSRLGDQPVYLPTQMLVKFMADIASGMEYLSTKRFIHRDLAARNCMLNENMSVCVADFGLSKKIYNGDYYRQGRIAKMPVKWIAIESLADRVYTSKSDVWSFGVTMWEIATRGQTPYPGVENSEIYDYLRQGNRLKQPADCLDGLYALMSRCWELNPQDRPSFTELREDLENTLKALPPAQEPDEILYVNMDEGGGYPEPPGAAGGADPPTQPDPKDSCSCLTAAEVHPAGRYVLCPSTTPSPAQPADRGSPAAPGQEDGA
In short: as §1

CDK4_cyclinD1 = target: T3, CDK4_cyclinD1 (Homo sapiens, UniProt P11802); settings: read-out: Inhibitory effect (%) CDK4_cyclinD1
T3 construct: purchased Proqinase, Germany
In short: as §1

CDK8_cyclinC = target: T4, CDK8_cyclinC (Homo sapiens, UniProt P49336); settings: read-out: Inhibitory effect (%) CDK8_cyclinC
T4 construct: purchased Proqinase, Germany
T4 sequence (P49336 whole entry): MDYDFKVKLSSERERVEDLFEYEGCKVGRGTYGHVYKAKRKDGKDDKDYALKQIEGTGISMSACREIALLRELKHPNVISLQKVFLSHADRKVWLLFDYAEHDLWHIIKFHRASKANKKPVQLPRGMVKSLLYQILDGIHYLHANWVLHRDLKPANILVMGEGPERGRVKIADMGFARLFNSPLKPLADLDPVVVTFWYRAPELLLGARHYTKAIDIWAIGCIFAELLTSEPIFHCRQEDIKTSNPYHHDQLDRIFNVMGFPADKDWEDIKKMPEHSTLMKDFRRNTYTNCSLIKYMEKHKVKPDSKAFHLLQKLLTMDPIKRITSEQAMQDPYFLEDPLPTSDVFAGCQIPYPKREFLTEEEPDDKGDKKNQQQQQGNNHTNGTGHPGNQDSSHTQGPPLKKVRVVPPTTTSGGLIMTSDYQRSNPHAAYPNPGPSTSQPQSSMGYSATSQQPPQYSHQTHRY
T4 sequence (P24863 whole entry partner): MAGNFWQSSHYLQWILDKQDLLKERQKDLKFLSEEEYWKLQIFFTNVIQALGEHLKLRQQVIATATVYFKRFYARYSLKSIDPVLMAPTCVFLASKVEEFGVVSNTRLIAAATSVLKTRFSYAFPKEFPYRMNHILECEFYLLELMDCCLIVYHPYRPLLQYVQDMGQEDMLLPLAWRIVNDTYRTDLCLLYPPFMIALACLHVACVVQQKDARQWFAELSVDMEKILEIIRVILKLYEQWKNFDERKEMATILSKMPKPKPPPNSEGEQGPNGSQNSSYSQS
In short: as §1

CSNK2A1 = target: T5, CSNK2A1 (Homo sapiens, UniProt P68400); settings: read-out: Inhibitory effect (%) CSNK2A1
T5 construct: purchased Proqinase, Germany
T5 sequence (P68400 whole entry): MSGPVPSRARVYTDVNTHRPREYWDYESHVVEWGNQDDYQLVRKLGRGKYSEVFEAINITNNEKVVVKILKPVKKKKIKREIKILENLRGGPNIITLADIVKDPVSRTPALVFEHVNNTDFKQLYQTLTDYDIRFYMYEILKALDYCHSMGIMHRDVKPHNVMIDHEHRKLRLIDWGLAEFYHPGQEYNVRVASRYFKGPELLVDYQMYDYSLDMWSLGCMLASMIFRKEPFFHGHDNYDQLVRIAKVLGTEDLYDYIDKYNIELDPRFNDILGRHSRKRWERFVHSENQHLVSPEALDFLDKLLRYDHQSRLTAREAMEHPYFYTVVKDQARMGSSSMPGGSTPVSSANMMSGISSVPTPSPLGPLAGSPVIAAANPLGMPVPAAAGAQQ
In short: as §1

DAPK1 = target: T6, DAPK1 (Homo sapiens, UniProt P53355); settings: read-out: Inhibitory effect (%) DAPK1
T6 construct: purchased Proqinase, Germany
T6 sequence (P53355 whole entry): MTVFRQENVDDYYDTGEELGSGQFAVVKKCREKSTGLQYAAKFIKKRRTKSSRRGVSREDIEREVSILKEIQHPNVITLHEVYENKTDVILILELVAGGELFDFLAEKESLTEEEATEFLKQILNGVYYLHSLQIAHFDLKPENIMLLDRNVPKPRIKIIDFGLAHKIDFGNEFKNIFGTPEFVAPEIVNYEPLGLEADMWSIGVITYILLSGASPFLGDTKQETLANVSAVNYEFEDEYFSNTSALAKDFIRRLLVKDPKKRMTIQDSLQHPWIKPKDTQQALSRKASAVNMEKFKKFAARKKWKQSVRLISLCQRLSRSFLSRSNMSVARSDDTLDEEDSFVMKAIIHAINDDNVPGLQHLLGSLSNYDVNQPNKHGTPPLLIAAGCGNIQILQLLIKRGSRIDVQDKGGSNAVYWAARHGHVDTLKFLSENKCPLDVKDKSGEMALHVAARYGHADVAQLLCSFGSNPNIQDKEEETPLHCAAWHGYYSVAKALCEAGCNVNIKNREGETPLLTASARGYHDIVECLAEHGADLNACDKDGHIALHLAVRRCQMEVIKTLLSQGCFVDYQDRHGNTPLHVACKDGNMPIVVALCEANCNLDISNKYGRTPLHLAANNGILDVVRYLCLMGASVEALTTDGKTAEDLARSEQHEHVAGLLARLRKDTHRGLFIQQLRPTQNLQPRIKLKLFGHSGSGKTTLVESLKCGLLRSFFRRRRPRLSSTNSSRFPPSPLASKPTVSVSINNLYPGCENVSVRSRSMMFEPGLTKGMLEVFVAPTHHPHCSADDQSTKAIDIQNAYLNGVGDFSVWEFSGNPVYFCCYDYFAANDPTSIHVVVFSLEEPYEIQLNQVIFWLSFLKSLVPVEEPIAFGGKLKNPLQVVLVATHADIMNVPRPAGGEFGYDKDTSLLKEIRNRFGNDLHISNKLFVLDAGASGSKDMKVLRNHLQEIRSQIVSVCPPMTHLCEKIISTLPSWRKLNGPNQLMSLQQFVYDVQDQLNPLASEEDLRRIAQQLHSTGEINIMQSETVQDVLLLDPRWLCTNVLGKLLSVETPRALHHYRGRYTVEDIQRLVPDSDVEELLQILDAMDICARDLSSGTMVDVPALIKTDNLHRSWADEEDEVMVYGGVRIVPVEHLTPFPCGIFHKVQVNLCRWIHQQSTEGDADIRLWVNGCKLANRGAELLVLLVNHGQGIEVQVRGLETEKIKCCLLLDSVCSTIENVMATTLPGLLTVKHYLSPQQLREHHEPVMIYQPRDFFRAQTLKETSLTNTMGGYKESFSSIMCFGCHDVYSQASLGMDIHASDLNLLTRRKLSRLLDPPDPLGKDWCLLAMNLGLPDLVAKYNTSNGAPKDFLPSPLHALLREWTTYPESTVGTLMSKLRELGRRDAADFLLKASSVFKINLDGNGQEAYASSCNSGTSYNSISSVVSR
In short: as §1

FER = target: T7, FER (Homo sapiens, UniProt P16591); settings: read-out: Inhibitory effect (%) FER
T7 construct: purchased ProQinase (33PanQinase Activity Assay)
T7 sequence (P16591 whole entry): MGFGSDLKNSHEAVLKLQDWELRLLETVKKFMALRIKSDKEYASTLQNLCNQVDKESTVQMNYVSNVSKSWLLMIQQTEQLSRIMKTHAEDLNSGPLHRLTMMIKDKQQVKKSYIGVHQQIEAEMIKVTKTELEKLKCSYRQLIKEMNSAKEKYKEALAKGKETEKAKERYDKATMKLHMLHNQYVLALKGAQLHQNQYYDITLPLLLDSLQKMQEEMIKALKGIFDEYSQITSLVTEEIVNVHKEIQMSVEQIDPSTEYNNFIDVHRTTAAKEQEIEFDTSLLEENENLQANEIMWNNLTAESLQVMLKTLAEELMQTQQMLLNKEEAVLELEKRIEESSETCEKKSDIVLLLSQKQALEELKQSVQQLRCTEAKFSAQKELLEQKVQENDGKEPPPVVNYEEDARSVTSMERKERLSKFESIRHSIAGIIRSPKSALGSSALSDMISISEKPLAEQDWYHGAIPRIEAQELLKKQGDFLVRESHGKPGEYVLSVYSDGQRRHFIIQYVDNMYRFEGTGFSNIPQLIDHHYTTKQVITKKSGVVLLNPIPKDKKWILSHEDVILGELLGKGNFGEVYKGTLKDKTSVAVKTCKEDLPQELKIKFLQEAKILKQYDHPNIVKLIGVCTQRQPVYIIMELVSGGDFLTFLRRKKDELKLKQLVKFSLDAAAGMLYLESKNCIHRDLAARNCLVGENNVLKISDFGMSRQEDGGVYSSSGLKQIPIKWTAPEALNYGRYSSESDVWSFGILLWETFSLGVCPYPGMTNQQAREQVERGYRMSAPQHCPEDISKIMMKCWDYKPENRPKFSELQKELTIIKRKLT
In short: as §1

IRAK4 = target: T8, IRAK4 (Homo sapiens, UniProt Q9NWZ3); settings: read-out: Inhibitory effect (%) IRAK4
T8 construct: purchased ProQinase (33PanQinase Activity Assay)
T8 sequence (Q9NWZ3 1-460): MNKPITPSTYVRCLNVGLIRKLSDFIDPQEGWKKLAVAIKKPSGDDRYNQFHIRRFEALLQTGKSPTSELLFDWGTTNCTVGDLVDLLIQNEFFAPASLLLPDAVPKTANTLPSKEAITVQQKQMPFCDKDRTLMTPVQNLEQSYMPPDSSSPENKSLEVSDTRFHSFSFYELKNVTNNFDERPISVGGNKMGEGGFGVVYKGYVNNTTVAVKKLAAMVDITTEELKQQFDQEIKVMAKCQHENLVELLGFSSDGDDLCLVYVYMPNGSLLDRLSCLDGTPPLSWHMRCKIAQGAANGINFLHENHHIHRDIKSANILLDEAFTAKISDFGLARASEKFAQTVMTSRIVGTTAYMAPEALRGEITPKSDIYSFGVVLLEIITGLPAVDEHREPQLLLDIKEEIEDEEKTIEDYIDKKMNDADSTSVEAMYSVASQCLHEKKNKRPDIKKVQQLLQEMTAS
In short: as §1

JAK2 = target: T9, JAK2 (Homo sapiens, UniProt O60674); settings: read-out: Inhibitory effect (%) JAK2
T9 construct: purchased ProQinase (33PanQinase Activity Assay)
In short: as §1

RET = target: T10, RET (Homo sapiens, UniProt P07949); settings: read-out: Inhibitory effect (%) RET
T10 construct: purchased ProQinase (33PanQinase Activity Assay)
T10 sequence (P07949 29-1114): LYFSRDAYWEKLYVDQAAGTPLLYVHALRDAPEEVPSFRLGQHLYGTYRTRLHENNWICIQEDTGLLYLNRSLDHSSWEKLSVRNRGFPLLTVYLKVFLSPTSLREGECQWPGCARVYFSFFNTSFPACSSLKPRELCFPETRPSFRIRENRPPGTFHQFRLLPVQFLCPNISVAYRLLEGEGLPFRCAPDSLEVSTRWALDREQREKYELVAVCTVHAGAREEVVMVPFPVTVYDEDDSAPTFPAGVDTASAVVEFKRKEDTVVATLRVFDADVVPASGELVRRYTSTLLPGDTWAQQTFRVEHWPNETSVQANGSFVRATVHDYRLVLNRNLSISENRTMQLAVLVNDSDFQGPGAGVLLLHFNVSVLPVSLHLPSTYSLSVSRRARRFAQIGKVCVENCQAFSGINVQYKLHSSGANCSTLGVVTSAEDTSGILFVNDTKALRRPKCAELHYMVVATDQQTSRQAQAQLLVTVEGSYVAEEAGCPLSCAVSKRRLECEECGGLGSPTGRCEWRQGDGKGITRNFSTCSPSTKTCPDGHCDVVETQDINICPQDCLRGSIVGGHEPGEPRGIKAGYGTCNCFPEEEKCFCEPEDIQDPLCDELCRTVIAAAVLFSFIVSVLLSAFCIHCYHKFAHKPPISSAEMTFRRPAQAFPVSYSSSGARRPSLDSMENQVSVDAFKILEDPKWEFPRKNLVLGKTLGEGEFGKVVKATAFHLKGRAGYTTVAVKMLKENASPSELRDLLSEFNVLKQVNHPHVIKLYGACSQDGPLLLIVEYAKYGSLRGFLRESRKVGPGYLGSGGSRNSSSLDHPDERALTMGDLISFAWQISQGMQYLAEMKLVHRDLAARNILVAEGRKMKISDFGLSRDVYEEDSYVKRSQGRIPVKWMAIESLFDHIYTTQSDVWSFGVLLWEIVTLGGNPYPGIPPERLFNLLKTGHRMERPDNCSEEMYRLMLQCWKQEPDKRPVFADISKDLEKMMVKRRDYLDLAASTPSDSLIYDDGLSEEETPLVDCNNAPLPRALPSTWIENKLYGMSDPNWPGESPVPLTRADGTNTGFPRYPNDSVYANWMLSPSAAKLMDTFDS
In short: as §1

SGK3 = target: T11, SGK3 (Homo sapiens, UniProt Q96BR1); settings: read-out: Inhibitory effect (%) SGK3
T11 construct: purchased ProQinase (33PanQinase Activity Assay)
T11 sequence (Q96BR1 1-496): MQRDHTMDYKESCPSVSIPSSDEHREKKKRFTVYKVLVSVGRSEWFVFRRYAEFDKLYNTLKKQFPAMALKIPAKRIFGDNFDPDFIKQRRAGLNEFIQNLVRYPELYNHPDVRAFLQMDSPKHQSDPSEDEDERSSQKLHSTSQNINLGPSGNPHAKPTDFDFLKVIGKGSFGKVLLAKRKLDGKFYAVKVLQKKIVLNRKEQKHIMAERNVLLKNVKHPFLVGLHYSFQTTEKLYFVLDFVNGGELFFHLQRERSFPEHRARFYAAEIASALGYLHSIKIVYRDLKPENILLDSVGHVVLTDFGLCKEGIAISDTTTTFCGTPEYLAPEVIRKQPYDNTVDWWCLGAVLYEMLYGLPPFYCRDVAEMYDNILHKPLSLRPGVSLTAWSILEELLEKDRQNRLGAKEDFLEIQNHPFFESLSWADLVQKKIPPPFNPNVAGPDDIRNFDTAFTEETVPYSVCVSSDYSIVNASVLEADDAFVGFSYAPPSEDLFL
In short: as §1

T1 sequence (Q96GD4 whole entry): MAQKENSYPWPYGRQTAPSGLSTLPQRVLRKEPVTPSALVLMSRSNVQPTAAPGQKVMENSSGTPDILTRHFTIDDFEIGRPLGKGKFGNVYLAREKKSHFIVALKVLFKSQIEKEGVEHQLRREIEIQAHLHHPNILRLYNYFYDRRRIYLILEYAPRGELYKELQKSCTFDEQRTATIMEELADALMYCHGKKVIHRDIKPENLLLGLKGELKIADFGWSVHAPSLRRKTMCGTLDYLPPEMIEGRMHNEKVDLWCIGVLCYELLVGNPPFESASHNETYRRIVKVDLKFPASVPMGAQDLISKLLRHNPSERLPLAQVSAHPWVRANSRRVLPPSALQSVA

Structure (SMILES)	inhibition at 0.1 µM (AURKB) [%]	inhibition at 0.1 µM (AXL) [%]	inhibition at 0.1 µM (CDK4_cyclinD1) [%]	inhibition at 0.1 µM (CDK8_cyclinC) [%]	inhibition at 0.1 µM (CSNK2A1) [%]	inhibition at 0.1 µM (DAPK1) [%]	inhibition at 0.1 µM (FER) [%]	inhibition at 0.1 µM (IRAK4) [%]	inhibition at 0.1 µM (JAK2) [%]	inhibition at 0.1 µM (RET) [%]	inhibition at 0.1 µM (SGK3) [%]
CN1CCC(=O)NCCNc2ccn3ncc(c3n2)-c2cccc(c2)C1 [OD29]	-11.2	5.83	-13.8	-9.32	-1.02	-3.89	-7.91	26.4	14.4	27.1	-21.9
c1ccc2c(-c3cnn4cc(-c5ccc(N6CCNCC6)cc5)cnc34)ccnc2c1 [LDN-193189, reference compound]	3.93	10.7	-10.1	-1.99	-10.9	11.3	14.4	-6.28	5.83	10.8	-26.9
CN1CCc2cccc(c2)Nc2nccc(n2)N2CCCc3cc(ccc32)C1 [OD16]	4.48	-34.5	20.3	-16.6	-9.27	-6.59	-18.9	4.7	50.2	-29.1	2.44
